According to PubChem BioAssay AID248 (DTP/NCI, 2004):
Where “and” joins values, the source holds several entries; their conditions need not be identical. Identical values can stand only once. Toxic doses and inconclusive results are not listed. Rule as the data show it: active = T/C of 150% or more; inactive = T/C below 125%.

Test system: L1210 leukemia ip in BDF1 mice, survival T/C
Assay: NCI In Vivo Anticancer Drug Screen. Data for tumor model L1210 Leukemia (intraperitoneal) in B6D2F1 (BDF1) mice
Details: endpoint: mean survival time, higher = longer survival
Procedure, shortened: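 Transplanted-tumor mice were given test agent; controls received vehicle only. Survival readings from the two groups were divided (treated over control).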

[1] = dose: 200.0 mg/kg/injection, schedule: Q01DX001 (ip), vehicle: saline
[2] = dose: 800.0 mg/kg/injection, schedule: Q01DX001 (ip), vehicle: saline
[3] = dose: 100.0 mg/kg/injection, schedule: Q01DX001 (ip), vehicle: saline
[4] = dose: 400.0 mg/kg/injection, schedule: Q01DX001 (ip), vehicle: saline

Measured: T/C

Clc1ccc(C(c2ccc(Cl)cc2)C(Cl)(Cl)Cl)cc1
inactive: dose: 12.0 mg/kg/injection, schedule: Q01DX009 (ip), vehicle: saline 95 % of control | dose: 12.5 mg/kg/injection, schedule: Q01DX009 (ip), vehicle: acetone 97 % of control | dose: 25.0 mg/kg/injection, schedule: Q01DX009 (ip), vehicle: Klucel (hydroxypropylcellulose) (HPC) 90 % of control | dose: 25.0 mg/kg/injection, schedule: Q01DX009 (ip), vehicle: acetone 93 % of control | dose: 25.0 mg/kg/injection, schedule: Q01DX009 (ip), vehicle: saline 92 % of control | dose: 50.0 mg/kg/injection, schedule: Q01DX009 (ip), vehicle: Klucel (hydroxypropylcellulose) (HPC) 92 % of control | dose: 50.0 mg/kg/injection, schedule: Q01DX009 (ip), vehicle: acetone 100 % of control and 86 % of control | dose: 100.0 mg/kg/injection, schedule: Q01DX001 (ip), vehicle: acetone 93 % of control | dose: 100.0 mg/kg/injection, schedule: Q01DX009 (ip), vehicle: acetone 94 % of control | dose: 200.0 mg/kg/injection, schedule: Q01DX001 (ip), vehicle: acetone 87 % of control | [1] 90 % of control | dose: 200.0 mg/kg/injection, schedule: Q01DX009 (ip), vehicle: acetone 97 % of control | dose: 400.0 mg/kg/injection, schedule: Q01DX001 (ip), vehicle: acetone 92 % of control | dose: 800.0 mg/kg/injection, schedule: Q01DX001 (ip), vehicle: acetone 88 % of control | [2] 87 % of control

COc1ccc(C2=NC(=O)C(C(=O)c3ccccc3)O2)cc1 (stereo unspecified)
inactive: [3] 94 % of control | [1] 96 % of control | [4] 96 % of control

CC(C)(C)C1=CC(=O)C=CC1=O
inactive: dose: 50.0 mg/kg/injection, schedule: Q01DX009 (ip), vehicle: water 93 % of control | dose: 100.0 mg/kg/injection, schedule: Q01DX001 (ip), vehicle: water 100 % of control | dose: 100.0 mg/kg/injection, schedule: Q01DX009 (ip), vehicle: water 97 % of control | dose: 200.0 mg/kg/injection, schedule: Q01DX001 (ip), vehicle: water 102 % of control

O=C(/C=C(/CC(=O)c1ccccc1)C(=O)c1ccccc1)c1ccccc1
inactive: dose: 100.0 mg/kg/injection, schedule: Q04DX003 (ip), vehicle: Klucel (hydroxypropylcellulose) (HPC) 103 % of control | dose: 200.0 mg/kg/injection, schedule: Q04DX003 (ip), vehicle: Klucel (hydroxypropylcellulose) (HPC) 95 % of control | dose: 400.0 mg/kg/injection, schedule: Q04DX003 (ip), vehicle: Klucel (hydroxypropylcellulose) (HPC) 101 % of control

CN(C)Nc1ncnc2nc[nH]c12
inactive: dose: 12.5 mg/kg/injection, schedule: Q01DX Z (ip), vehicle: carboxymethylcellulose (CMC) 98 % of control | dose: 25.0 mg/kg/injection, schedule: Q01DX Z (ip), vehicle: carboxymethylcellulose (CMC) 104 % of control | dose: 50.0 mg/kg/injection, schedule: Q01DX Z (ip), vehicle: carboxymethylcellulose (CMC) 106 % of control and 115 % of control | dose: 75.0 mg/kg/injection, schedule: Q01DX001 (ip), vehicle: carboxymethylcellulose (CMC) 102 % of control | dose: 100.0 mg/kg/injection, schedule: Q01DX Z (ip), vehicle: carboxymethylcellulose (CMC) 114 % of control and 118 % of control | dose: 150.0 mg/kg/injection, schedule: Q01DX001 (ip), vehicle: carboxymethylcellulose (CMC) 102 % of control | dose: 300.0 mg/kg/injection, schedule: Q01DX001 (ip), vehicle: carboxymethylcellulose (CMC) 110 % of control

CC(C)C(=Nc1ccc(Cl)c(Cl)c1)N(C)C
inactive: dose: 44.0 mg/kg/injection, schedule: Q01DX Z (ip), vehicle: methylcellulose (MC) 95 % of control | dose: 66.0 mg/kg/injection, schedule: Q01DX Z (ip), vehicle: methylcellulose (MC) 102 % of control

Cc1cc2c(C)c3nc4ccccc4c3c(C)c2c[nH]1
inactive: dose: 50.0 mg/kg/injection, schedule: Q01DX001 (ip), vehicle: saline 107 % of control | [3] 98 % of control | [1] 101 % of control | [4] 107 % of control | [2] 110 % of control | dose: 1600.0 mg/kg/injection, schedule: Q01DX001 (ip), vehicle: saline 118 % of control

COc1ccc(NC(=S)NC(=O)COc2ccccc2)cc1
inactive: dose: 100.0 mg/kg/injection, schedule: Q01DX009 (ip), vehicle: saline with Tween-80 101 % of control and 107 % of control | dose: 100.0 mg/kg/injection, schedule: Q04DX002 (ip), vehicle: saline with Tween-80 107 % of control and 87 % of control | dose: 200.0 mg/kg/injection, schedule: Q01DX009 (ip), vehicle: saline with Tween-80 102 % of control | dose: 200.0 mg/kg/injection, schedule: Q04DX002 (ip), vehicle: saline with Tween-80 100 % of control and 90 % of control | dose: 400.0 mg/kg/injection, schedule: Q01DX009 (ip), vehicle: saline with Tween-80 89 % of control | dose: 400.0 mg/kg/injection, schedule: Q04DX002 (ip), vehicle: saline with Tween-80 106 % of control
